In patent publication US10709709B2, “Substituted carbonucleoside derivatives useful as anticancer agents” (Pfizer Inc., priority 2016, dated 2020) one finds IC50 data, which are given here for 22 compounds.

pIC50: −log10 of the molar value.

As a reminder, the pIC50 is −log10 of the IC50, conventionally taken in molar units. Low readings indicate a large IC50, high ones a small IC50.

Chain of PRMT5/MEP50 protein complex (O14744 other isoform, or with tags, fused parts or gaps): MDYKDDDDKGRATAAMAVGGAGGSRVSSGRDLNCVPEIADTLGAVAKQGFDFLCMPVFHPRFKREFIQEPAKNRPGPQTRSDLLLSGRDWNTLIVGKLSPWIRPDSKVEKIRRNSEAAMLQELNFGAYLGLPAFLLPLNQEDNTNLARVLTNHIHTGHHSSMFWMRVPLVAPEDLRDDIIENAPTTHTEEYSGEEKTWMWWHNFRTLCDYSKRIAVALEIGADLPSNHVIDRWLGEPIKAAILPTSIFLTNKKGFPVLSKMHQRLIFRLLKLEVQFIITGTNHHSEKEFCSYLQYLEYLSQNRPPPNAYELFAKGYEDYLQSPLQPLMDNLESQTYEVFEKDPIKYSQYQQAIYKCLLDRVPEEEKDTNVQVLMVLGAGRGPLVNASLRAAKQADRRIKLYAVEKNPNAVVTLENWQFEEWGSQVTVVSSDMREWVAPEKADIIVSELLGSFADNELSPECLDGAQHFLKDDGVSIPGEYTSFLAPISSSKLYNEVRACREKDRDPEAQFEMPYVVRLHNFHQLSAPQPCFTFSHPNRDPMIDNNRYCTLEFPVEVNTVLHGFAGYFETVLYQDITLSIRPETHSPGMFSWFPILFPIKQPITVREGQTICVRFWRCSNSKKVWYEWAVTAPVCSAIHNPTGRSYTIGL
Chain of PRMT5/MEP50 protein complex (Q9BQA1 whole entry partner): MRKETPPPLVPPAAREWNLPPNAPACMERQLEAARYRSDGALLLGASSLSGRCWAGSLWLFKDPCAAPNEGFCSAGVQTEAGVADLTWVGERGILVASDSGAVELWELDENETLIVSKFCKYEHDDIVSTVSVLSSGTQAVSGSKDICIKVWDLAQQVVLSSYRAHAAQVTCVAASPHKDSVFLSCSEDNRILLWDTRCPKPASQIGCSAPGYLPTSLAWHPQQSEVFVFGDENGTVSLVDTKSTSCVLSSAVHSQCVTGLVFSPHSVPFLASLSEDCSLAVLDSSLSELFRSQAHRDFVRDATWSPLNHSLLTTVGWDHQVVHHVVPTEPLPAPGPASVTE

The test deals with PRMT5/MEP50 protein complex (Homo sapiens (Human), UniProt O14744). As to the kind of experiment: PRMT5 biochemical assay (3H-SAM methylation of H4(1-21) peptide, filter plate scintillation). The note with it: 10 nM PRMT5/MEP50 complex, 200 nM H4(1-21) peptide, 1 uM SAM, 25 minute incubation at room temperature. How it is done:
Biochemical Assay Methods
Compounds were solubilized in DMSO and serially diluted, using 3-fold dilutions, into 100% DMSO at a concentration 50-fold greater than the desired assay concentration. Following dilution, 1 ul was added to an empty 96-well microtiter plate. PRMT5/MEP50 protein complex was combined with H4(1-21) peptide ([…]) in PRMT5 assay buffer (50 mM Tris pH 8.5, 50 mM NaCl, 5 mM MgCl2, 1 mM EDTA, 1 mM TCEP) and 44 ul was added to the microtiter plate containing compound. S-Adenosyl-L-methionine (SAM) was prepared by combining ^3H labelled SAM with unlabelled SAM in PRMT5 assay buffer such that the final SAM concentration was 10 uM and the specific activity was 0.2 uCi/ul. The reaction was initiated by adding 5 ul of SAM stock to the microtiter plate. The final reaction conditions were 10 nM PRMT5/MEP50 complex, 200 nM peptide and 1 uM SAM. Following a 25 minute incubation at room temperature, the reaction was stopped with the addition of 100 uL of 20% TCA. The 3H-peptide product was captured using a 96-well filter plate (MSIPN4B, Millipore) and washed 5 times with PBS buffer. Scintillation fluid (100 ul) was added to the dried filter plate and counted in a liquid scintillation counter. IC50 values were determined by fitting the data to the standard 4-parameter dose response equation using Pfizer proprietary software.
Results for the biochemical assay of examples are summarized in Table 1, shown as IC50 values in μM.
In turn, `Cc1ncnc2c1ccn2[C@@H]1C[C@H](Oc2ccc(Cl)cc2C(O)CN)[C@@H](O)[C@H]1O` (stereo partly drawn) [Example 149, (1S,2S,3S,5R)-3-(2-(2-amino-1-hydroxyethyl)-4-chlorophenoxy)-5-(4-methyl-7H-pyrrolo[2,3-d]pyrimidin-7-yl)cyclopentane-1,2-diol] had a pIC50 of 7.16.
In the case of `Cc1ncnc2c1ccn2[C@@H]1C[C@H]([C@@H](O)c2cccc3c2CNCC3)[C@@H](O)[C@H]1O` [Example 57, (1S,2R,3R,5R)-3-((R)-hydroxy(1,2,3,4-tetrahydroisoquinolin-8-yl)methyl)-5-(4-methyl-7H-pyrrolo[2,3-d]pyrimidin-7-yl)cyclopentane-1,2-diol], the negative-log IC50 (pIC50) was 7.32.
To `Cc1cc(O[C@H]2C[C@@H](n3cc(F)c4c(N)ncnc43)[C@H](O)[C@@H]2O)c2c(c1F)CCNC2` [Example 113, (1S,2S,3R,5S)-3-(4-amino-5-fluoro-7H-pyrrolo[2,3-d]pyrimidin-7-yl)-5-((5-fluoro-6-methyl-1,2,3,4-tetahydroisoquinolin-8-yl)oxy)cyclopentane-1,2-diol] belongs 9.00; to `Cc1ncnc2c1ccn2[C@@H]1C[C@H](Oc2cccc3c2C(N)CCC3)[C@@H](O)[C@H]1O` (single isomer, unassigned) [Example 187], 6.01.
To `Cc1ncnc2c1ccn2[C@@H]1C[C@H](Cc2ccc(F)cc2)[C@@H](O)[C@H]1O` [Example 58, (1S,2R,3S,5R)-3-(4-fluorobenzyl)-5-(4-methyl-7H-pyrrolo[2,3-d]pyrimidin-7-yl)cyclopentane-1,2-diol] belongs 6.54; to `CO[C@H]1C[C@@H](n2ccc3c(C)ncnc32)[C@H](O)[C@@H]1O` [Example 60, (1S,2S,3S,5R)-3-methoxy-5-(4-methyl-7H-pyrrolo[2,3-d]pyrimidin-7-yl)cyclopentane-1,2-diol], less than 3.70; to `Cc1ncnc2c1ccn2[C@@H]1C[C@H]([C@@H](O)c2cccc(Cl)c2)[C@@H](O)[C@H]1O` [Example 8, (1S,2R,3R,5R)-3-[(R)-(3-chlorophenyl) (hydroxy)methyl]-5-(4-methyl-7H-pyrrolo[2,3-d]pyrimidin-7-yl)cyclopentane-1,2-diol], 5.47.
As for `Cc1ncnc2c1ccn2[C@@H]1C[C@H](Oc2ccccc2C#N)[C@@H](O)[C@H]1O` [Example 64, 2-(((1S,2S,3S,4R)-2,3-dihydroxy-4-(4-methyl-7H-pyrrolo[2,3-d]pyrimidin-7-yl)cyclopentyl)oxy)benzonitrile], the figure is less than 3.70.
The compound `CN(c1ccnc(N)n1)[C@@H]1C[C@H]([C@H](O)c2ccc(F)c(F)c2)[C@@H](O)[C@H]1O` [Example 39, (1R,2S,3R,5R)-3-[(2-aminopyrimidin-4-yl)(methyl)amino]-5-[(S)-(3,4-difluorophenyl)(hydroxy)methyl] cyclopentane-1,2-diol] had a negative-log IC50 (pIC50) of 6.94.
To `Cc1cc(N(C)[C@@H]2C[C@H]([C@@H](O)c3ccc(F)c(F)c3)[C@@H](O)[C@H]2O)ncn1` [Example 34, (1S,2R,3R,5R)-3-[(R)-(3,4-difluorophenyl)(hydroxy)methyl]-5-[methyl(6-methylpyrimidin-4-yl)amino] cyclopentane-1,2-diol] belongs 4.23.
To `Nc1ncnc2c1c(F)cn2[C@@H]1C[C@H](Oc2cccc3c2CNC3)[C@@H](O)[C@H]1O` [Example 110, (1S,2S,3R,5S)-3-(4-amino-5-fluoro-7H-pyrrolo[2,3-d]pyrimidin-7-yl)-5-(2,3-dihydro-1H-isoindol-4-yloxy)cyclopentane-1,2-diol] belongs 8.10.
To `Cc1cc(O[C@H]2C[C@@H](n3ccc4c(C)ncnc43)[C@H](O)[C@@H]2O)c2c(c1F)CCNC2` [Example 155, (1S,2S,3S,5R)-3-((5-fluoro-6-methyl-1,2,3,4-tetrahydroisoquinolin-8-yl)oxy)-5-(4-methyl-7H-pyrrolo[2,3-d]pyrimidin-7-yl)cyclopentane-1,2-diol] belongs 8.70; to `Cc1ncnc2c1ccn2[C@@H]1C[C@H](Oc2cccc3c2CN[C@H](C)CO3)[C@@H](O)[C@H]1O` [Example 208, (1S,2S,3S,5R)-3-(((R)-3-methyl-2,3,4,5-tetrahydrobenzo[f][1,4]oxazepin-6-yl)oxy)-5-(4-methyl-7H-pyrrolo[2,3-d]pyrimidin-7-yl)cyclopentane-1,2-diol], 8.10; to `Cc1ncnc2c1ccn2[C@@H]1C[C@H](Oc2cc(C(F)F)c(F)c3c2CNCC3)[C@@H](O)[C@H]1O` [Example 190, (1S,2S,3S,5R)-3-((6-(difluoromethyl)-5-fluoro-1,2,3,4-tetrahydroisoquinolin-8-yl)oxy)-5-(4-methyl-7H-pyrrolo[2,3-d]pyrimidin-7-yl)cyclopentane-1,2-diol], 9.00.
As for `Cc1ncnc2c1ccn2[C@@H]1C[C@H](Oc2cccc3c2CN(C)CC3)[C@@H](O)[C@H]1O` [Example 83, (1S,2S,3S,5R)-3-((2-methyl-1,2,3,4-tetrahydroisoquinolin-8-yl)oxy)-5-(4-methyl-7H-pyrrolo[2,3-d]pyrimidin-7-yl)cyclopentane-1,2-diol], the pIC50 was 7.70.
As to `Cc1ncnc2c1ccn2[C@@H]1C[C@H](C2(O)CC2)[C@@H](O)[C@H]1O` [Example 17, (1S,2R,3S,5R)-3-(1-hydroxycyclopropyl)-5-(4-methyl-7H-pyrrolo[2,3-d]pyrimidin-7-yl)cyclopentane-1,2-diol], the pIC50 is 5.56.
As for `Cc1ncnc2c1ccn2[C@@H]1C[C@H](Oc2cccc3c2CNC[C@@H](C)O3)[C@@H](O)[C@H]1O` [Example 209, (1S,2S,3S,5R)-3-(((R)-2-methyl-2,3,4,5-tetrahydrobenzo[f][1,4]oxazepin-6-yl)oxy)-5-(4-methyl-7H-pyrrolo[2,3-d]pyrimidin-7-yl)cyclopentane-1,2-diol], the figure is 8.30; as for `CO[C@@H]1C[C@H](n2ccc3c(C)ncnc32)[C@@H](O)[C@H]1O` [Example 61, (1R,2R,3R,5S)-3-methoxy-5-(4-methyl-7H-pyrrolo[2,3-d]pyrimidin-7-yl)cyclopentane-1,2-diol], 5.67.
The compound `Cc1ncnc2c1ccn2[C@@H]1C[C@H](Oc2cccc3c2CCN(C)C3)[C@@H](O)[C@H]1O` [Example 81, (1S,2S,3R,5S)-3-(4-methyl-7H-pyrrolo[2,3-d]pyrimidin-7-yl)-5-[(2-methyl-1,2,3,4-tetrahydroisoquinolin-5-yl)oxy]cyclopentane-1,2-diol] showed a negative-log IC50 (pIC50) of 5.78.
To `O[C@@H]1[C@H](O)[C@@H]([C@H](O)c2ccc(F)c(F)c2)C[C@H]1Nc1ncnc2[nH]ccc12` [Example 27, (1S,2R,3R,5R)-3-[(S)-(3,4-difluorophenyl)(hydroxy)methyl]-5-(7H-pyrrolo[2,3-d]pyrimidin-4-ylamino)cyclopentane-1,2-diol] belongs 6.35; to `Cc1cc(N(C)[C@@H]2C[C@H]([C@H](O)c3ccc(F)c(F)c3)[C@@H](O)[C@H]2O)ncn1` [Example 33, (1S,2R,3R,5R)-3-[(S)-(3,4-difluorophenyl)(hydroxy)methyl]-5-[methyl(6-methylpyrimidin-4-yl)amino] cyclopentane-1,2-diol], 5.45; to `Cc1ncnc2c1ccn2[C@H]1C[C@@H](Oc2ccc(F)cc2CN)[C@H](O)[C@@H]1O` [Example 67, (1R,2R,3R,5S)-3-(2-(aminomethyl)-4-fluorophenoxy)-5-(4-methyl-7H-pyrrolo[2,3-d]pyrimidin-7-yl)cyclopentane-1,2-diol], less than 3.70.
